Measured values from patent US8273787B2, “Activated cytotoxic compounds for attachment to targeting molecules for the treatment of mammalian disease conditions” (Onconova Therapeutics, Inc, priority 2006, dated 2012).

Legend:
Assay type in all cases: cell-based
CEM = assay: 96 hour growth inhibition, CEM; settings: Homo sapiens, CCRF-CEM
Description: (§1) Two compounds were selected from our library of cytotoxic molecules for immunoconjugation since they both have IC50 values in the low nanomolar range. Various tumor cell lines (ATCC) were treated for 96 hours in the presence of increasing concentrations of each compound and the total number of viable cells remaining was determined after 96 hours of exposure. The IC50 value was determined to be the amount of drug required to inhibit the growth of each cell line 50% as compared to vehicle treated cells.
(§2) Another extremely important predictive factor is the ability of these compounds to kill cell lines overexpressing multiple drug resistance (MDR) genes. A very high percentage of cancer patient relapses are due to some form of resistance to traditional chemotherapy. Of these patients, the vast majority express one or more of the MDR genes within the ABC transport gene family. Overexpression of these genes increases the efflux of compounds that are recognized by these pumping systems. […] Onconova's benzyl styryl sulfone compounds are not recognized by the MDR-1 gene and therefore provide an advantage over other highly toxic drugs including but not limited to the taxanes, doxorubicin, etoposide, and vinca-alkaloids. […] MES-SA/Dx5, uterine sarcoma, and […], ovarian, are both classical multidrug resistant cell lines that are cross resistant to the taxanes and anthracyclins. Harker, W G, and Sikic, B. I., Multidrug (Pleiotropic) Resistance In Doxorubicin-Selected Variants Of The Human Sarcoma Cell Line MES-SA, Cancer Res. 45(9):4091-6 (1985). MES-SA/Dx5 and Apr. […] Fujimori, A., et al., Mutation At The Catalytic Site Of Topoisomerase I In CEM/C2, A Human Leukemia Cell Line Resistant To Camptothecin, Cancer Res. 55(6): 1339-46 (1995). ON 01500 and ON 013100, for example, are both extremely active against these resistant cell lines.

Daudi = assay: 96 hour growth inhibition, Daudi; settings: Homo sapiens, Burkitt's Lymphoma (B-cell)
Description: as §1

HCT-116 = assay: 96 hour growth inhibition, HCT-116; settings: Homo sapiens, HCT-116, COLO-RECTAL
Description: as §1

MIA-PaCa2 = assay: 96 hour growth inhibition, MIA-PaCa2; settings: Homo sapiens, MIA PaCa-2
Description: as §1

MCF-7 = assay: growth inhibition, breast carcinoma cell line MCF-7; settings: Homo sapiens, MCF7; MCF-7, BREAST (ER+), HER2 +
Description: as §1
(§3) Certain embodiments of immunoconjugates described herein are targeted to HER2 expressing breast cancer cells. Certain embodiments of immunoconjugates described herein are targeted to multiple myeloma (MM) cell lines expressing the surface antigens CD38 and or CD138. The IC50 value of ON 015100 and ON 013100 was determined for a number of breast cell lines as well as a panel of multiple myeloma cell lines expressing varying levels of each antigen and the data are shown in table (4) and table (5), respectively. […] Two cell lines, SK-BR-3 and BT474, known to express very high levels of HER2 are more than 2 fold more sensitive to ON 013100 as compared to the cell lines which express lower levels of HER2. Marx C., et al., Validated High-Throughput Screening of Drug-Like Small Molecules for Inhibitors of ErbB2 Transcription. Assay Drug Dev. […]

PC-3 = assay: 96 hour growth inhibition, PC-3; settings: Homo sapiens, PC-3, PROSTATE (AR−)
Description: as §1

HCT-15 = assay: 96 hour growth inhibition, HCT-15; settings: Homo sapiens, HCT-15, COLO-RECTAL
Description: as §1

[1] = tested on: Various tumor cell lines (ATCC); assay: 96 hour growth inhibition, various tumor cell lines; settings: 96 hours exposure, viable cells vs vehicle; read-out: IC50 value range
Description: as §1

2008 (PARENTAL) = assay: growth inhibition, 2008 (parental); settings: ovarian
Description: as §1, §2

DU145 = assay: 96 hour growth inhibition, DU145; settings: Homo sapiens, DU-145, DU145, PROSTATE (AR−)
Description: as §1

A549 = assay: 96 hour growth inhibition, A549; settings: Homo sapiens, A549, NSCLC
Description: as §1

BT20 = assay: growth inhibition, breast carcinoma cell line BT20; settings: Homo sapiens, BT-20; BT20, BREAST (ER−), HER2 ++
Description: as §1, §3

DLD-1 = assay: 96 hour growth inhibition, DLD-1; settings: Homo sapiens, DLD-1, COLO-RECTAL
Description: as §1

NCI-H929 = assay: growth inhibition, multiple myeloma cell line NCI-H929; settings: Homo sapiens, CD38 + CD138 + CD20 −
Description: as §1
(§4) Pellat-Deceunynk, C., et al., Human Myeloma Cell Lines As A Tool For Studying The Biology Of Multiple Myeloma: A Reappraisal 18 Years After, Blood 86(10):4001-2 (1995); Gooding, R. P., et al., Phenotypic And Molecular Analysis Of Six Human Cell Lines Derived From Patients With Plasma Cell Dyscrasia, British Journal of Haematology 106:669-688 (1999).

U87 = assay: 96 hour growth inhibition, U87; settings: Homo sapiens, U-87 MG, U87, GLIOBLASTOMA
Description: as §1

2008/17/4 (RESISTANT) = assay: growth inhibition, 2008/17/4 (resistant); settings: for RSIST-ANCE: 2008/17/4 (RESISTANT) versus 2008 (PARENTAL); for IC50: 2008/17/4 (RESISTANT), ovarian, multidrug resistant
Description: as §1, §2

Sk-OV-3 = assay: 96 hour growth inhibition, Sk-OV-3; settings: Homo sapiens, Sk-OV-3, OVARIAN
Description: as §1

K562 = assay: 96 hour growth inhibition, K562; settings: Homo sapiens, K562, CML
Description: as §1

MES-SA (PARENTAL) = assay: growth inhibition, MES-SA (parental); settings: Homo sapiens, uterine sarcoma
Description: as §1, §2

H157 = assay: 96 hour growth inhibition, H157; settings: Homo sapiens, NCI-H157, H157, NSCLC
Description: as §1

U266 = assay: growth inhibition, multiple myeloma cell line U266; settings: Homo sapiens, U-266, CD38 −/+ CD138 + CD20 −
Description: as §1, §4

RPMI 8266 = assay: growth inhibition, multiple myeloma cell line RPMI 8266; settings: Homo sapiens, RPMI8266; RPMI 8266, multiple myeloma, CD38 + CD138 + CD20 −
Description: as §1, §4

SMILES | IC50 (CEM; CEM (PARENTAL)) [nM] | IC50 (CEM; CEM, […], 96 hours) [nM] | IC50 (Daudi) [nM] | IC50 (HCT-116) [nM] | IC50 (MIA-PaCa2) [nM] | IC50 (MCF-7) [nM] | IC50 (PC-3) [nM] | IC50 (HCT-15) [nM] | IC50 [1] [nM] | IC50 (2008 (PARENTAL)) [nM] | IC50 (DU145) [nM] | IC50 (A549) [nM] | IC50 (BT20) [nM] | IC50 (DLD-1) [nM] | IC50 (NCI-H929) [nM] | IC50 (U87) [nM] | RSIST-ANCE (2008/17/4 (RESISTANT)) | IC50 (2008/17/4 (RESISTANT)) [nM] | IC50 (Sk-OV-3) [nM] | IC50 (K562) [nM] | further results
COc1cc(OC)c(/C=C/S(=O)(=O)Cc2ccc(OC)c(O)c2)c(OC)c1 [ON 013100, (E)-5-((2,4,6-trimethoxystyrylsulfonyl)methyl)-2-methoxyphenol] | 4 | 4 | 3 | 6 | 3 | 10 | 5 | 7 | 3 to 5 | 5 | 5 | 10 | 80 | 7 | 1 | 7 | 1.3 | 6 | 4 | 4 | IC50 (MES-SA (PARENTAL)): 5 nM; IC50 (H157): 7 nM; IC50 (U266): 5 nM; IC50 (RPMI 8266): 5 nM
COc1cc(OC)c(/C=C/S(=O)(=O)Cc2ccc(OC)c(N)c2)c(OC)c1 [ON 01500, (E)-2,4,6-trimethoxystyryl-4-methoxy-3-aminobenzylsulfone] | 10 | 10 | 3 | 6 | 3 | 1 | 6 | 5 | 3 to 5 | 3 | 5 | 3 | 4 | 6 | 0.8 | 3 | 1 | 3 | 3 | 2.5 | IC50 (MES-SA (PARENTAL)): 4 nM; IC50 (H157): 4 nM; IC50 (U266): 3 nM; IC50 (RPMI 8266): 3 nM
